Test results: patent publication US9290482B2, “Amino-substituted imidazopyridazines” (BAYER PHARMA AKTIENGESELLSCHAFT, priority 2012, dated 2016)

Target: human full-length MKNK1 (Homo sapiens, UniProt Q9BUB5, T344D)
Experiment: MKNK1 kinase high ATP assay (TR-FRET)
Type: biochemical
Settings: 2 mM ATP, 15 min preincubation with MKNK1, TR-FRET
Procedure: MKNK1 Kinase High ATP Assay
MKNK1-inhibitory activity at high ATP of compounds of the present invention after their preincubation with MKNK1 was quantified employing the TR-FRET-based MKNK1 high ATP assay as described in the following paragraphs.
A recombinant fusion protein of Glutathione-S-Transferase (GST, N-terminally) and human full-length MKNK1 (amino acids 1-424 and T344D of accession number BAA 19885.1), expressed in insect cells using baculovirus expression system and purified via glutathione sepharose affinity chromatography, was purchased from Carna Biosciences (product no 02-145) and used as enzyme. As substrate for the kinase reaction the biotinylated peptide biotin-Ahx-IKKRKLTRRKSLKG (C-terminus in amide form) was used, which can be purchased e.g. from the company Biosyntan (Berlin-Buch, Germany).
For the assay 50 nl nL of a 100fold concentrated solution of the test compound in DMSO was pipetted into a black low volume 384well microtiter plate (Greiner Bio-One, Frickenhausen, Germany), 2 μL of a solution of MKNK1 in aqueous assay buffer [50 mM HEPES pH 7.5, 5 mM magnesium chloride, 1.0 mM dithiothreitol, 0.005% (v/v) Nonidet-P40 (Sigma)] was added and the mixture was incubated for 15 min at 22° C. to allow pre-binding of the test compounds to the enzyme before the start of the kinase reaction. Then the kinase reaction was started by the addition of 3 μL of a solution of adenosine-tri-phosphate (ATP, 3.3 mM=>final conc. in the 5 μL assay volume is 2 mM) and substrate (0.1 μM=>final conc. in the 5 μL assay volume is 0.06 μM) in assay buffer and the resulting mixture was incubated for a reaction time of 30 min at 22° C. The concentration of MKNK1 was adjusted depending of the activity of the enzyme lot and was chosen appropriate to have the assay in the linear range, typical concentrations were in the range of 0.003 μg/mL. The reaction was stopped by the addition of 5 μL of a solution of TR-FRET detection reagents (5 nM streptavidine-XL665 [Cisbio Bioassays, Codolet, France] and 1 nM anti-ribosomal protein S6 (pSer236)-antibody from Invitrogen [#44921G] and 1 nM LANCE EU-W1024 labeled ProteinG [Perkin-Elmer, product no. AD0071]) in an aqueous EDTA-solution (100 mM EDTA, 0.1% (w/v) bovine serum albumin in 50 mM HEPES pH 7.5).
The resulting mixture was incubated for 1 h at 22° C. to allow the formation of complex between the phosphorylated biotinylated peptide and the detection reagents. Subsequently the amount of phosphorylated substrate was evaluated by measurement of the resonance energy transfer from the Eu-chelate to the streptavidine-XL. Therefore, the fluorescence emissions at 620 nm and 665 nm after excitation at 350 nm were measured in a TR-FRET reader, e.g. a Rubystar (BMG Labtechnologies, Offenburg, Germany) or a Viewlux (Perkin-Elmer). The ratio of the emissions at 665 nm and at […] was taken as the measure for the amount of phosphorylated substrate. The data were normalised (enzyme reaction without inhibitor=0% inhibition, all other assay components but no enzyme=100% inhibition).

Compound | IC50 [nM]
c1cc2oc(-c3cnc4ccc(OCC[C@@H]5CCCN5)nn34)cc2cn1 [Example 6, 3-(Furo[3,2-c]pyridin-2-yl)-6-{2-[(2S)-pyrrolidin-2-yl]ethoxy}imidazo[1,2-b]-pyridazine] | 132
c1cnc2cc(-c3cnc4ccc(OC[C@H]5CNCCO5)nn34)oc2c1 [Example 5, 3-(Furo[3,2-b]pyridin-2-yl)-6-[(2R)-morpholin-2-ylmethoxy]imidazo[1,2-b]-pyridazine] | 86
COc1nccc2oc(-c3cnc4ccc(O[C@@H](CNC5CC5)c5ccc(F)cc5)nn34)cc12 (stereo in doubt) [Example 7, N-[2-(4-Fluorophenyl)-2-{[3-(4-methoxyfuro[3,2-c]pyridin-2-yl)imidazo[1,2-b]-pyridazin-6-yl]oxy}ethyl]cyclopropanamine] | 389
c1cc2oc(-c3cnc4ccc(OC[C@H]5CNCCO5)nn34)cc2cn1 [Example 4, 3-(Furo[3,2-c]pyridin-2-yl)-6-[(2R)-morpholin-2-ylmethoxy]imidazo[1,2-b]-pyridazine] | 72

Stronger by IC50, values ahead:

IC50 [nM] | Compound
31 | COc1nccc2oc(-c3cnc4ccc(OCC5CNC5)nn34)cc12 [Example 2, 6-(Azetidin-3-ylmethoxy)-3-(4-methoxyfuro[3,2-c]pyridin-2-yl)imidazo[1,2-b]-pyridazine]
32 | CN[C@H](C)COc1ccc2ncc(-c3cc4c(OC)nccc4o3)n2n1 (stereo in doubt) [Example 3, 1-{[3-(4-Methoxyfuro[3,2-c]pyridin-2-yl)imidazo[1,2-b]pyridazin-6-yl]oxy}-N-methylpropan-2-amine]
48 | COc1nccc2oc(-c3cnc4ccc(OC[C@@H]5CCCCN5)nn34)cc12 [Example 8, 3-(4-Methoxyfuro[3,2-c]pyridin-2-yl)-6-[(2S)-piperidin-2-ylmethoxy]imidazo-[1,2-b]pyridazine]
11 | COc1nccc2oc(-c3cnc4ccc(OC[C@H]5CNCCO5)nn34)cc12 [Example 1, 3-(4-Methoxyfuro[3,2-c]pyridin-2-yl)-6-[(2R)-morpholin-2-ylmethoxy]imidazo-[1,2-b]pyridazine]
